Results as given in US10525058B2, “Urea derivative or pharmacologically acceptable salt thereof” (KYORIN PHARMACEUTICAL CO., LTD., priority 2015, dated 2020).

target: T1, human FPRL1 (Homo sapiens, UniProt P25090); test: Measurement test of agonist activity on human FPRL1 (calcium mobilization in HEK293 cells transfected with human FPRL1 and Gα15); format: cell-based; conditions: Fluo-4 NW, molar concentration giving 50% maximum activation, read-out: Efficacy EC50
T1 construct: expressed in transfected cells; host or cells: HEK293 (JCRB9068, NIBIO), transient co-transfection with pCMV-script vectors
T1 sequence (P25090 1-351): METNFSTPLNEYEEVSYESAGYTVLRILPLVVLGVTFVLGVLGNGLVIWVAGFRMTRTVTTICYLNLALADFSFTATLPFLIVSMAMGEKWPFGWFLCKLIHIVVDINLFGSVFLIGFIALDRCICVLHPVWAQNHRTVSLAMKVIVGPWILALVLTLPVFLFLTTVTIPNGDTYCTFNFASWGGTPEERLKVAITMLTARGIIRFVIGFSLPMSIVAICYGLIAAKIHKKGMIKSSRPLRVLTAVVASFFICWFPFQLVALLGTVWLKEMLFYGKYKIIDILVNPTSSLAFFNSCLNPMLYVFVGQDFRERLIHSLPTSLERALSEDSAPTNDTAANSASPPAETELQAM
Source text: Measurement test of agonist activity on human FPRL1
(1-1) Construction of Human FPRL1 Expression Vector
Human FPRL (SEQ ID NO: 3) was amplified in a PCR reaction from cDNA derived from a monocytic leukemia cell line THP-1 (TIB-202, ATCC) as a template using a forward primer shown in SEQ ID NO: 1, a reverse primer shown in SEQ ID NO: 2, and KOD-plus-ver. 2 (KOD-211, TOYOBO CO., LTD.). […] 2 (LGK-201, TOYOBO CO., LTD.). The ligation product was transformed into DH5α (DNA-901, TOYOBO CO., LTD.), cultured on a 100 μg/mL kanamycin-containing LB medium, and purified with HiSpeed Plasmid Maxi Kit (12662, QIAGEN).
(1-2) Construction of Human Gα15 Expression Vector
2. The amplified PCR product and pCMV-script vector were digested with Hind III and XhoI, and the resultant digest was ligated with Ligation high ver. 2. The ligation product was transformed into DH5α, cultured on a 100 μg/mL kanamycin-containing LB medium, and purified with HiSpeed Plasmid Maxi Kit.
(2-1) Method for Culturing and Subculturing HEK293
HEK293 (JCRB9068, NIBIO) was cultured in an incubator at 5% CO2 and 37° C. using DMEM (11885-092, GIBCO) containing 10% FBS and 1cPenicillin-Streptomycin (15140-122, GIBCO).
(2-2) Introduction of Human FPRL1 and Gal5 Expression Vectors
The cells were inoculated in a Collagen Type 1 coated 6-well plate (4810-010, IWAKI) to 5×10^5 cells/2.5 mL/well and cultured overnight. On the next day, human FPRL1 and Gα15 expression vectors were introduced using Lipofectamine 2000 transfection reagent (11668-019, Life technologies). First, the human FPRL1 and Gal5 expression vectors were diluted with Opti-MEM I Reduced Serum Medium (31985-070, GIBCO) to 2 μg/250 μL/well and Lipofectamine 2000 transfection reagent was diluted with Opti-MEM I Reduced Serum Medium to be 4 μL/250 μL/well. The vectors and reagent were softly diffused, and incubated at room temperature for 5 minutes. The vector solution was mixed with Lipofectamine 2000 transfection reagent in equal amounts. In order to form a complex of the vectors and Lipofectamine 2000 transfection reagent, the mixture was incubated at room temperature for 20 minutes, and added at 500 μL/well to the medium of inoculated cells. The treated cells were cultured for 24 hours, inoculated in Poly-D-Lysine coated 96-well plate (356640, BD Biosciences) at a cell density of 7×10^4 cells/100 μL/well, and cultured for another 24 hours. The resultant cells were used in a measurement test of calcium mobilization in the cells.
(3) Evaluation of Agonist Activity on Human FPRL1 (Test of Calcium Mobilization in Cell)
An appropriate amount of each test compound was first weighed, and dissolved to 10^−2 M by addition of dimethyl sulfoxide (DMSO). […] The plate dispensed with compound solutions was set in Flexstation (Molecular Devices, LLC.) until measurement.
Subsequently, 10 mL of assay buffer and 100 μL of probenecid solution (dissolved by addition of 1 mL of assay buffer to a 250 mM stock) were sufficiently mixed and dissolved in Fluo-4 NW dye mix. The medium of cells inoculated on the previous day was removed, the dissolved Fluo-4 NW dye mix was added in an amount of 90 μL/well, and a reaction was caused in the dark at 37° C. for 45 minutes. The cells after the reaction and chips for addition of the compound were set in Flexstation, and variation in fluorescence intensity over time after addition of the compound was measured [amount of added compound=10 μL (final concentration: 10^−5 M to 10^−12 M), excitation wavelength: 485 nm, measured wavelength: 525 nm, 1.5 sec×54 read]. A value was calculated by subtracting a base value during addition of DMSO from the maximum value of relative fluorescence unit, and analyzed. All the measurement data were analyzed with Prism 4 that was a data analysis tool.

EC50 [nM] | SMILES
0.05 | COc1cc(F)c([C@@H]2Cn3c(C)nnc3C2NC(=O)Nc2ccc(F)cc2)c(F)c1 (single isomer, unassigned; (-)) [Example 7-1, (−)-1-[(6R*,7S*)-6-(2,6-Difluoro-4-methoxyphenyl)-3-methyl-6,7-dihydro-5H-pyrrolo[2,1-c][1,2,4]triazol-7-yl]-3-(4-fluorophenyl)urea]
0.03 | COc1cc(F)c([C@@H]2CN3C(=O)CON=C3[C@H]2NC(=O)Nc2ccc(F)cc2)c(F)c1 (single isomer, unassigned) [Example 8-1, (−)-1-[(7R*,8S*)-7-(2,6-Difluoro-4-methoxyphenyl)-4-oxo-4,6,7,8-tetrahydro-3H-pyrrolo[2,1-c][1,2,4]oxadiazin-8-yl]-3-(4-fluorophenyl)urea]
0.25 | COc1cc(F)c([C@@H]2Cn3ccnc3[C@H]2NC(=O)Nc2ccc(F)cc2)c(F)c1 (single isomer, unassigned) [Example 7-2, (−)-1-[(6R*,7S*)-6-(2,6-difluoro-4-methoxyphenyl)-6,7-dihydro-5H-pyrrolo[1,2-a]imidazol-7-yl]-3-(4-fluorophenyl)urea]
0.97 | COc1cc(F)c([C@@H]2CN3CCCN=C3[C@H]2NC(=O)Nc2ccc(F)cc2)c(F)c1 (single isomer, unassigned) [Example 7-6, (−)-1-[(7R*,8S*)-7-(2,6-difluoro-4-methoxyphenyl)-2,3,4,6,7,8-hexahydropyrrolo[1,2-a]pyrimidin-8-yl]-3-(4-fluorophenyl)urea]
2.5 | O=C(Nc1ccc(F)cc1)N[C@@H]1c2nnnn2C[C@H]1c1cc2c(cc1F)OCC2 (single isomer, unassigned) [Example 7-5, (−)-1-[(6R*,7S*)-6-(6-fluoro-2,3-dihydrobenzofuran-5-yl)-6,7-dihydro-5H-pyrrolo[1,2-d]tetrazol-7-yl]-3-(4-fluorophenyl)urea]
0.29 | COc1ccc([C@@H]2CN3C(=O)CON=C3[C@H]2NC(=O)Nc2ccc(F)cc2)cc1 (relative stereo) [Example 10-1, 1-(4-Fluorophenyl)-3-[(7R*,8S*)-7-(4-methoxyphenyl)-4-oxo-4,6,7,8-tetrahydro-3H-pyrrolo[2,1-c][1,2,4]oxadiazin-8-yl]urea]
0.03 | COc1cc(F)c([C@@H]2CN3C(=O)CCN=C3[C@H]2NC(=O)Nc2ccc(F)cc2)c(F)c1 (single isomer, unassigned) [Example 9-1, (−)-1-[(7R*,8S*)-7-(2,6-Difluoro-4-methoxyphenyl)-4-oxo-2,3,4,6,7,8-hexahydropyrrolo[1,2-a]pyrimidin-8-yl]-3-(4-fluorophenyl)urea]
0.6 | COc1ccc([C@@H]2Cn3nnnc3[C@H]2NC(=O)Nc2ccc(F)cc2)cc1 (single isomer, unassigned) [Example 7-3, (−)-1-(4-fluorophenyl)-3-[(6R*,7S*)-6-(4-methoxyphenyl)-6,7-dihydro-5H-pyrrolo[1,2-d]tetrazol-7-yl]urea]
0.36 | COc1cc(F)c([C@@H]2Cn3nnnc3[C@H]2NC(=O)Nc2ccc(F)cc2)c(F)c1 (single isomer, unassigned) [Example 7-4, (−)-1-[(6R*,7S*)-6-(2,6-difluoro-4-methoxyphenyl)-6,7-dihydro-5H-pyrrolo[1,2-d]tetrazol-7-yl]-3-(4-fluorophenyl)urea]
5.6 | COc1ccc([C@@H]2CC(=O)N[C@H]2NC(=O)Nc2ccc(F)cc2)cc1 (racemic) [Example 6-1, (±)-trans-1-(4-Fluorophenyl)-3-[3-(4-methoxyphenyl)-5-oxopyrrolidin-2-yl]urea]

Continued, compound first:

SMILES | EC50 [nM]
COc1ccc(C2COC(=O)N2NC(=O)Nc2ccc(Cl)cc2)cc1 (racemic) [Example 5-4, (±)-1-(4-chlorophenyl)-3-[4-(4-methoxyphenyl)-2-oxooxazolidin-3-yl]urea] | 2.6
COc1cc(F)c([C@@H]2COC[C@@H]2NC(=O)Nc2ccc(F)cc2)c(F)c1 (racemic) [Example 1-8, (±)-cis-1-[4-(2,6-difluoro-4-methoxyphenyl)-tetrahydrofuran-3-yl]-3-(4-fluorophenyl)urea] | 3.78
COc1ccc([C@@H]2CCNC(=O)C2NC(=O)Nc2ccc(Cl)cc2)cc1 (mixture of isomers) [Example 1-11, (±)-trans-1-(4-chlorophenyl)-3-[4-(4-methoxyphenyl)-2-oxopiperidin-3-yl]urea] | 0.11
COc1ccc([C@@H]2COC[C@H]2NC(=O)Nc2ccc(Cl)cc2)cc1 (racemic) [Example 1-9, (±)-trans-1-(4-chlorophenyl)-3-[4-(4-methoxyphenyl)tetrahydrofuran-3-yl]urea] | 2.3
COc1ccc(C2CS(=O)(=O)CC2NC(=O)Nc2ccc(Cl)cc2)cc1 (racemic) [Example 1-10, (±)-1-(4-chlorophenyl)-3-[4-(4-methoxyphenyl)-1,1-dioxideterrahydrothiophen-3-yl]urea] | 0.29
COc1ccc([C@@H]2COC[C@@H]2NC(=O)Nc2ccc(Cl)s2)cc1 (racemic) [Example 1-7, (±)-cis-1-(5-chlorothiophen-2-yl)-3-[4-(4-methoxyphenyl)-tetrahydrofuran-3-yl]urea] | 5.2
O=C(Nc1ccc(F)cc1)NC1COC[C@H]1c1ccc(Cl)cc1 (mixture of isomers) [Example 5-1, (±)-cis-1-[4-(4-Chlorophenyl)tetrahydrofuran-3-yl]-3-(4-fluorophenyl)urea] | 14
COc1ccc([C@@H]2COC[C@@H]2NC(=O)Nc2ccc(C#N)cc2)cc1 (racemic) [Example 1-6, (±)-cis-1-(4-cyanophenyl)-3-[4-(4-methoxyphenyl)-tetrahydrofuran-3-yl]urea] | 10
COc1ccc([C@@H]2COC[C@@H]2NC(=O)Nc2ccc(Cl)cc2)cc1 (racemic) [Example 1-1, (±)-cis-1-(4-Chlorophenyl)-3-[4-(4-methoxyphenyl)tetrahydrofuran-3-yl]urea] | 0.25
COc1ccc([C@@H]2COC[C@@H]2NC(=O)Nc2ccc(F)c(F)c2)cc1 (racemic) [Example 1-5, (±)-cis-1-(3,4-difluorophenyl)-3-[4-(4-methoxyphenyl)tetrahydrofuran-3-yl]urea] | 12
